Where two headings read alike, the source gives them in different places. Each block holds one molecule with its values, some of them ahead of it.
What was measured:
[1] = tested on: AML; conditions: Bross et al. 2001; cited from earlier work
[2] = melanoma patients, cited from earlier work
[3] = target: Melanom-assoziiertes Chondroitinsulfat Proteoglykan (MCSP) (human) (UniProt Q6UVK1); experiment: flow cytometry, saturation binding on A2058 melanoma cells, half-maximal saturation concentration
[4] = target: Melanom-assoziiertes Chondroitinsulfat Proteoglykan (MCSP) (human) (UniProt Q6UVK1); experiment: ratio of KD values, flow cytometry on A2058 cells

Molecule: GO: gegen CD33 gerichteter humanisierter Antikörper gekoppelt an Calicheamycin
- Patienten, die ansprechen [1]: ~30%
- mittlere rückfallfreie Überlebenszeit [1]: 6,8 Monate

Molecule: CN(C)/N=N/c1[nH]cnc1C(N)=O [Dacarbazin, Dimethyl-trizeno-imidazol-Carboxamid]
- Ansprechraten ([2]; according to newer studies (Avril et al. 2004)): ~7%
- Ansprechraten ([2]; as given in most studies): 10 - 20%

- Kd [3]: 23.3 nM
B1: scFv-Fragment MCSP (scFv)
scFv: MADYKDIVMTQSPASLAVSLGQRATISCRASESVDSYGNSFMHWYQQKPGQPPKLLIYLASNLESGVPARFSGSGSRTDFTLTIDPVEADDAATYYCQQNNEDPLTFGSGTKLETKRGGGGSGGGGSGGGGSGGGGSQVQLKQSGPELVKPGASVKISCKASGYAFSRSWMNWVKQRPGQGLEWIGRIYPGDGDTNYNGKFKGKATLTADKSSSTAYMQVSSLTSVDSAVYFCARGNTVVVPYTMDYWGQGTSVTVPSASGADHHHHHH

- Kd [3]: 1.65 nM
- fold improvement of affinity against the original scFv MCSP [4]: 14 fold
B2: scFv-Fragment MCSP HL (scFv)
scFv: MADYKQVKLQQSGPELVKPGASVKISCKASGYAFSRSWMNWVKQRPGQGLEWIGRIYPGDGDTNYNGKFKGKATLTADKSSSTAYMQVSSLTSVDSAVYFCARGNTVVVPYTMDYWGQGTTVTVSSGGGGSGGGGSGGGGSDIELTQSPASLAVSLGQRATISCRASESVDSYGNSFMHWYQQKPGQPPKLLIYLASNLESGVPARFSGSGSRTDFTLTIDPVEADDAATYYCQQNNEDPLTFGGGTKLELKRSASGADHHHHHH
